Legend:
[1] = Weight gain in rats over seven-day dosing (Example 3); type: in vivo, rat; conditions: 7 days
Method: (§1) In an initial experiment, two dose groups of six animals per group received either 5 or 50 mg/kg b.i.d., and a further group received vehicle only, as a control. A follow-up experiment was performed to explore dose-response and the selected doses were 15 and 50 mg/kg b.i.d., again plus control.
Body weights of individual rats were recorded before and after the seven-day dosing period.

[2] = Oral glucose tolerance test (OGTT) in rats with diet-induced obesity (Example 5); type: in vivo, rat; conditions: for Glucose concentration maximum / Glucose concentration excursion (baseline to maximum): OGTT day 21, DIO rats; for Time to maximum (glucose concentration): OGTT day 21, dextrose 2 g/kg, DIO rats
Method: As part of the study described in Example 4, an oral glucose tolerance test (OGTT) was performed on day 21 of the dosing period, after a 2-4 hour fast. Dextrose (2 g/kg) was administered by oral gavage. Blood for glucose analysis was collected at 0, 15, 30, 60, 120 and 180 minutes after dextrose administration. At each time point, 0.25 ml whole blood was collected in EDTA, processed to plasma, and analyzed for blood glucose with a low-volume glucose kit.

[3] = Body weight, food consumption and liver weight in diet-induced obese (DIO) rat model (Example 4); type: in vivo; conditions: for liver weight: rat, in vivo, po
Method: Male Sprague-Dawley rats were acclimated for 7 weeks on a high-fat diet before commencement of dose administration, and maintained on the same diet throughout the subsequent dosing period of 23 days. The high-fat diet (D12492 commercially available from Research Diets, Inc., New Brunswick, N.J.) was one in which at least 60% of calories are derived from fat.
Dose levels of gemfibrozil (50 mg/kg) and sibutramine (10 mg/kg) were selected based on published reports. All treatments were administered once daily by oral gavage in 10 ml vehicle. A vehicle-only control was also administered. Each treatment group consisted of 10 animals.
Body weight of each animal was measured weekly during the 7-week acclimation period and five times weekly during the 23-day dosing period. Food consumption was recorded twice weekly during the 7-week acclimation period and five times weekly during the 23-day dosing period.
Animals were sacrificed and liver weights measured at conclusion of the study.

[4] = Multiplex bioanalytics profiling of plasma lipids in drug-dosed rats (Example 1); type: in vivo, rat; conditions: 7 days
Method: Multiplex bioanalytics profiling can elucidate novel pharmacological actions of drugs via measurement of hundreds of disease-relevant biomolecules in biofluids collected from drug-dosed animals. Romazarit was evaluated via a full multiplex bioanalytics profiling study.
as §1
In both experiments, urine was collected from each animal by clean-catch after the final dose on day 7, and cerebrospinal fluid (CSF) and plasma were collected (terminal samples) on day 8. Aliquots of the CSF and plasma samples from each individual were submitted for LC-MS analyses of bioanalytes. Three different separation methods were run, with MS analyses in both positive and negative ion modes, to enable resolution of relative quantification of the bioanalytes. These methods included: • RP-I: LC-MS of polar and non-polar abundant lipids (e.g., individual cholesterol esters, triglycerides, diacylglycerols, phospholipids, lysophospholipids); • RP-II: LC-MS of lower abundance bioanalytes (e.g., eicosanoids & other lipid mediators, fatty acids, oxidized fatty acids, bile acids, conjugated bile acids); • PLR: LC-MS of polar compounds (e.g., catecholamines & serotonin pathway, amino acids, organic acids, sugars).

[5] = LC-MS of plasma amino acids and thyroxine in rats (Example 2); type: in vivo, rat; conditions: 7 days
Method: as §1
In both experiments, urine was collected from each animal by clean-catch after the final dose on day 7, and cerebrospinal fluid (CSF) and plasma were collected (terminal samples) on day 8. Aliquots of the CSF and plasma samples from each individual were submitted for LC-MS analyses of bioanalytes. Three different separation methods were run, with MS analyses in both positive and negative ion modes, to enable resolution of relative quantification of the bioanalytes.

[6] = Terminal fasting serum glucose and lipids in rats with diet-induced obesity (Example 6); type: in vivo, rat; conditions: DIO rats, vs vehicle control
Method: As part of the study described in Example 4, a terminal blood sample (0.5 ml whole blood in EDTA) was collected on day 24, after a 12-18 hour fast. Whole blood was processed to serum, and analyzed for glucose, total cholesterol, HDL cholesterol, free fatty acids and total triglycerides.

[7] = Metabolic parameters / indicators of insulin sensitivity in normal rats (Example 9); type: in vivo, rat
Description: Male Sprague-Dawley rats were provided normal chow ad libitum, both before and during the study period. […] Six rats were assigned to each treatment group (8 to the vehicle control). The study terminated on the day following administration of the seventh dose (day 8), with terminal blood collected for plasma lipid and lipoprotein analyses including LC-MS-based determination of lipid profiles, total and free cholesterol analyses, and lipoprotein cholesterol determinations (VLDL, LDL and HDL).
Adiponectin is an insulin-sensitizing protein that is abundantly expressed in adipocytes and is secreted into the circulation (see review by Lara-Castro et al. (2007) cited above).

[8] = 15 mg/kg b.i.d. p.o., second experiment
[9] = 50 mg/kg b.i.d. p.o., initial experiment
[10] = 50 mg/kg b.i.d. p.o., second experiment
[11] = DIO rats, 50 mg/kg once daily p.o.
[12] = DIO rats, 100 mg/kg once daily p.o.
[13] = 5 and 50 mg/kg b.i.d. p.o., initial experiment

SMILES: Cc1nc(-c2ccc(Cl)cc2)oc1COC(C)(C)C(=O)O [romazarit, 2-[[2-(4-chlorophenyl)-4-methyl-5-oxazolyl]methoxy]-2-methylpropanoic acid]
- weight gain [1, 8]: generally similar to that seen in the initial experiment with the 5 mg/kg dose
- weight gain [1, 9]: dramatic inhibition of weight gain
- weight gain [1, 10]: not only inhibited weight gain, but even resulted in weight loss
- Glucose concentration maximum ([2]; 15 mg/kg): 230.1 mg/dL
- Glucose concentration excursion (baseline to maximum) ([2]; 50 mg/kg): 61.1 mg/dL
- Glucose concentration maximum ([2]; 50 mg/kg): 203.3 mg/dL
- Glucose concentration excursion (baseline to maximum) ([2]; 100 mg/kg): 42.7 mg/dL
- Glucose concentration maximum ([2]; 100 mg/kg): 185.1 mg/dL
- Time to maximum (glucose concentration) ([2]; 15 mg/kg): 15 min
- Time to maximum (glucose concentration) ([2]; 50 mg/kg): 15 min
- Time to maximum (glucose concentration) ([2]; 100 mg/kg): 60 min
- food consumption ([3]; DIO rats, 15 mg/kg once daily p.o., throughout the dosing period): comparable to the vehicle control
- day by which food consumption returned to levels comparable to the vehicle control [3, 11]: ≤ 15 days
- day of minimum food consumption [3, 11]: 6 days
- body weight loss by comparison with the vehicle control ([3]; DIO rats, 50 mg/kg once daily p.o., day 16): 10.3%
- body weight loss by comparison with the vehicle control ([3]; DIO rats, 50 mg/kg once daily p.o., day 23): 4.6%
- food consumption ([3]; DIO rats, 50 mg/kg once daily p.o., first 13 days of the dosing period): significantly less than the vehicle control
- day by which food consumption returned to levels comparable to the vehicle control [3, 12]: ≤ 15 days
- day of minimum food consumption [3, 12]: 8 days
- body weight loss by comparison with the vehicle control (maximum) ([3]; DIO rats, 100 mg/kg once daily p.o., day 16): 16%
- body weight loss by comparison with the vehicle control ([3]; DIO rats, 100 mg/kg once daily p.o., end of study (day 23)): 13.3%
- food consumption ([3]; DIO rats, 100 mg/kg once daily p.o., first 13 days of the dosing period): significantly less than the vehicle control
- liver weight ([3]; 15 mg/kg): No increase in liver weight
- liver weight ([3]; 50 mg/kg): Increased liver weight
- liver weight ([3]; 100 mg/kg): Increased liver weight
- plasma triglycerides ([4]; 5 mg/kg b.i.d. p.o., initial experiment): also apparent
- plasma triglycerides [4, 8]: lowered plasma triglycerides to a degree that was intermediate
- plasma triglycerides [4, 9]: highly pronounced
- plasma cholesterol esters [4, 10]: generally similar to those seen with the same dose in the initial experiment
- plasma triglycerides [4, 10]: generally similar to those seen with the same dose in the initial experiment
- plasma cholesterol esters [4, 13]: increased
- plasma amino acids [5, 10]: generally similar to those for the same dose in the initial experiment
- plasma thyroxine [5, 10]: generally similar to those for the same dose in the initial experiment
- levels of common amino acids in plasma [5, 13]: small but significant lowering
- plasma thyroxine (T4) [5, 13]: concomitant decrease
- terminal (total) cholesterol levels ([6]; day 24, 15 mg/kg once daily): not statistically significant
- terminal HDL levels ([6]; day 24, 15 mg/kg once daily): not statistically significant
- terminal fasting levels of triglycerides ([6]; day 24, 15 mg/kg once daily): significant reduction
- terminal fasting serum glucose ([6]; day 24, 15 mg/kg once daily): significantly reduced
- terminal levels of free fatty acids ([6]; day 24, 15 mg/kg once daily): did not, at any of the tested doses, affect
- terminal (total) cholesterol levels ([6]; day 24, 50 mg/kg once daily): significantly reduced
- terminal HDL levels ([6]; day 24, 50 mg/kg once daily): significantly reduced
- terminal fasting levels of triglycerides ([6]; day 24, 50 mg/kg once daily): significant reduction
- terminal fasting serum glucose ([6]; day 24, 50 mg/kg once daily): significantly reduced
- terminal levels of free fatty acids ([6]; day 24, 50 mg/kg once daily): did not, at any of the tested doses, affect
- terminal (total) cholesterol levels ([6]; day 24, 100 mg/kg once daily): significantly reduced
- terminal HDL levels ([6]; day 24, 100 mg/kg once daily): significantly reduced
- terminal fasting levels of triglycerides ([6]; day 24, 100 mg/kg once daily): did not achieve statistical significance
- terminal fasting serum glucose ([6]; day 24, 100 mg/kg once daily): significantly reduced
- terminal levels of free fatty acids ([6]; day 24, 100 mg/kg once daily): did not, at any of the tested doses, affect
- glucose in plasma ([7]; once daily p.o. 7 days): appeared to lower
- insulin in plasma ([7]; once daily p.o. 7 days): appeared to lower
- plasma glucagon ([7]; once daily p.o. 7 days): lowered
- plasma adiponectin ([7]; once daily p.o. 7 days, 10, 50 and 100 mg/kg): dose-dependently increased
